The experiment deals with EGFR (UniProt P00533).

As usually defined, the IC50 is the midpoint of a concentration-inhibition curve. Low readings indicate greater potency, high ones weaker potency.

Bounds are passed on as bounds.

EGFR, sequence (P00533 whole entry, looked up): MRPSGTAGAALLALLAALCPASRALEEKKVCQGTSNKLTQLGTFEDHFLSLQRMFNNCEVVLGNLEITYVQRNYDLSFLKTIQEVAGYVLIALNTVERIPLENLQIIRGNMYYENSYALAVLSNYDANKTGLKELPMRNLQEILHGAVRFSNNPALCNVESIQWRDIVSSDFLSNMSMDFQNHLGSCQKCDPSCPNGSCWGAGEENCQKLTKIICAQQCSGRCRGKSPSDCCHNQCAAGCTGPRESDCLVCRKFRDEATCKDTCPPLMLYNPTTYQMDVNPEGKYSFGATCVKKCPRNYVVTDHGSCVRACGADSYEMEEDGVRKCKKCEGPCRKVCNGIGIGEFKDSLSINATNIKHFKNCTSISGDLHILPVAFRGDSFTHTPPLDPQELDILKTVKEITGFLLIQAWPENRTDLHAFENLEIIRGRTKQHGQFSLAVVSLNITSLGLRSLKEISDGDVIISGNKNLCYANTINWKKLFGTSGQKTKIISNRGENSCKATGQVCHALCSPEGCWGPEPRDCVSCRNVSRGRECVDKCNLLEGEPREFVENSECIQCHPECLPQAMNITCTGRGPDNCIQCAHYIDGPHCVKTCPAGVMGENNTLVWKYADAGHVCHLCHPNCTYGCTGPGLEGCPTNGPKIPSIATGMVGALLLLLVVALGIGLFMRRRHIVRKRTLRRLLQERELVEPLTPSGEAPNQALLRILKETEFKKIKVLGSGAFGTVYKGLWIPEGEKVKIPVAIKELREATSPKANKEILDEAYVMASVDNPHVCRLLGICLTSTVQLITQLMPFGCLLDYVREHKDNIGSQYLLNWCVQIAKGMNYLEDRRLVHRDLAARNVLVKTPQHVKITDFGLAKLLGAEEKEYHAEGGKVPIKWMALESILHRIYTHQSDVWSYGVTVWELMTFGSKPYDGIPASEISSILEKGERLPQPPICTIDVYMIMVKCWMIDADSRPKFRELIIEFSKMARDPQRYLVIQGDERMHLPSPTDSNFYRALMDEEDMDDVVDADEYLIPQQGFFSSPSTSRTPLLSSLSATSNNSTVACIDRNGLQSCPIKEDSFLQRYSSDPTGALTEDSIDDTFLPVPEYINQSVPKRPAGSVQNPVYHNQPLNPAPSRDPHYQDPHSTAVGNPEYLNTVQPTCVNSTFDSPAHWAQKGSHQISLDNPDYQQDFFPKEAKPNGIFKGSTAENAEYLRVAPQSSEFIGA

As for `COc1ccc(C2Cc3cnc(Nc4cccnc4)nc3N(CC3CC3)C2=O)cc1` (centres undefined), the IC50 was less than 10 µM.
Turning to `COc1cc(OC)cc(C2Cc3cnc(Nc4ccccc4)nc3N(c3ccccc3)C2=O)c1` (centres undefined), the IC50 was less than 10 µM.
`COc1ccc(C2Cc3cnc(Nc4ccccc4)nc3N(c3ccccc3)C2=O)cc1OC` (centres undefined) yielded an IC50 of more than 10 µM.
The figure for `COc1ccc(C2Cc3cnc(Nc4ccccc4)nc3N(c3ccccc3)C2=O)cc1` (centres undefined) is less than 10 µM; for `COc1ccc(C2Cc3cnc(Nc4ccc(OC)nc4)nc3N(c3ccccc3)C2=O)cc1` (centres undefined) it is less than 10 µM.
For the compound `COc1ccc(OC)c(C2Cc3cnc(Nc4ccccc4)nc3N(c3ccccc3)C2=O)c1` (centres undefined), the IC50 is less than 10 µM.
The figure for `O=C1C(c2ccccc2)Cc2cnc(Nc3ccccc3)nc2N1c1ccccc1` (centres undefined) is less than 10 µM; for `O=C1C(c2c(Cl)cccc2Cl)Cc2cnc(Nc3ccccc3)nc2N1c1ccccc1` (centres undefined) it is less than 10 µM; for `O=C1C(c2ccncc2)Cc2cnc(Nc3ccccc3)nc2N1c1ccccc1` (centres undefined) it is less than 10 µM.
The figure for `O=C1C(c2cccnc2)Cc2cnc(Nc3ccccc3)nc2N1c1ccccc1` (centres undefined) is less than 10 µM; for `O=C1C(c2cc(C(F)(F)F)cc(C(F)(F)F)c2)Cc2cnc(Nc3ccccc3)nc2N1c1ccccc1` (centres undefined) it is more than 10 µM; for `COc1ccc(C2Cc3cnc(Nc4ccccc4)nc3N(CC(C)C)C2=O)cc1` (centres undefined) it is less than 10 µM.
The result for `COc1ccccc1C1Cc2cnc(Nc3ccccc3)nc2N(c2ccccc2)C1=O` (centres undefined) reads less than 10 µM; that for `Cc1ccccc1C1Cc2cnc(Nc3ccccc3)nc2N(c2ccccc2)C1=O` (centres undefined), less than 10 µM.

For the origin of these results see the Kinase Knowledgebase extract (Sharma et al. 2016).
